Values of other authors in patent publication US20090143362A1, “CARBAMAZEPINE FORMULATIONS” (priority 2007, published 2009).

Tests used:
[1] = blood level
[2] = in presence of water, after 1 hour, X-ray powder diffraction

therapeutic range [1]: 4 to 12 µg/mL
conversion to carbamazepine dihydrate complete [2]: 95%
water solubility: poorly water-soluble
Structure (SMILES): NC(=O)N1c2ccccc2C=Cc2ccccc21 [Carbamazepine, 5H-dibenz-[b,f]azepine-5-carboxamide]
